Earlier results as cited in patent US11357752B2, “Carolacton and derivatives thereof for use in the treatment of cell proliferation disorders” (Helmholtz-Zentrum für Infektionsforschung GmbH, priority 2017, dated 2022).

Test system: MTHFD1 or MTHFD2
Conditions: prior-art inhibitor, poor activity; cited from earlier work

Question: With Nc1nc2c(c(=O)[nH]1)N1C(=O)N(c3ccc(C(=O)N[C@@H](CCC(=O)O)C(=O)O)cc3)CC1CN2 (stereo partly shown) [LY345899] as the molecule, how does the IC50 read?
Answer: The IC50 was 128 µM.
